These results are taken from US20240417412A1, “HETEROCYCLIC COMPOUNDS AND METHODS OF USE” (AMGEN INC., priority 2022, published 2024).

The term IC50 denotes the concentration that inhibits the measured activity by half.

Experiment [1] deals with KRAS G12D (Homo sapiens, UniProt P01116, C118A/G12D). Kind of experiment: KRAS G12D Coupled Nucleotide Exchange Assay. The experiment is classed as biochemical. To be noted: GDP-bound KRAS G12D/C118A, 2 hours pre-incubation, SOS-mediated nucleotide exchange, AlphaScreen. The protocol: The assay plates were then read on a PerkinElmer EnVision Multilabel Reader, using AlphaScreen® technology, and data were analyzed using a 4-parameter logistic model to calculate IC50 values.
Sequence of KRAS G12D (Homo sapiens, UniProt P01116, C118A/G12D) (P01116 1-169 isoform P01116-2 G12D/C118A): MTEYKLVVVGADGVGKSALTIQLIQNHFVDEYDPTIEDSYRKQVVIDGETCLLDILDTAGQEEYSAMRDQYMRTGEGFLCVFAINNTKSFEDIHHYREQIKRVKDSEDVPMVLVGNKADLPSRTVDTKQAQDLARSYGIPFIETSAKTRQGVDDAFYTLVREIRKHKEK
Background: Alpha assays give light when donor and acceptor beads are brought close together.

Experiment [2] concerns the target KRAS G12D (Homo sapiens, UniProt P01116, G12D). Kind of experiment: KRAS G12D TR-FRET Assay. To be noted: His-tagged KRAS G12D, biotinylated KRPep-2d, read-out: KRAS G12D Binding IC50. The protocol: The plate was incubated for 30 minutes at room temperature. Biotinylated KRPep-2d substrate (Amgen) was diluted to 20 nM in Assay Buffer and 2 uL was added to all wells and incubated for 1 hour at room temperature. Detection Reagent (0.4 nM LANCE Eu-W1024 Anti-6×His (Perkin Elmer AD0401), 5 nM streptavidin-d2 (Cisbio 610SADLA)) was prepared in Assay Buffer, then 4 μL was added to the plate and incubated for 1 hour at room temperature.
Background: TR-FRET usually uses a lanthanide donor and a delayed reading to cut background.

A further experiment concerns p-ERK (AsPC-1 cells). The experiment is described as follows: Phospho-ERK1/2 MSD Assay. In kind it is cell-based. Here is the method: Sixteen hours prior to compound treatment, AsPC-1 cells were seeded in 96-well cell culture plates at a density of 25,000 cells/well and incubated at 37° C., 5% CO2. A compound dose-response titration was diluted in growth media, added to appropriate wells of a cell culture plate, and then incubated at 37° C., 5% CO2 for 2 hours. […] Phosphorylation of ERK1/2 in compound-treated lysates was assayed using Phospho-ERK1/2 Whole Cell Lysate kits (Meso Scale Discovery K151DWD) according to the manufacturer's protocol. Assay plates were read on a Meso Scale Discovery Sector Imager 6000, and data were analyzed using a 4-parameter logistic model to calculate IC50 values.

[3] abbreviates: Homo sapiens, ASPC1, 2 h, read-out: 2 h p-ERK (AsPC-1 cells), IC50 (μM), AsPC-1 cells, 2 hours compound treatment.
The mark [4] stands for this setting: read-out: 2 h p-ERK (AsPC-1 cells), IC50, AsPC-1 cells, 2 hours compound treatment.

Each structure is given as a SMILES string. Where two headings read alike, the source gives them in different places.

Sequence of KRAS G12D (Homo sapiens, UniProt P01116, G12D) (P01116 1-188 isoform P01116-2 G12D): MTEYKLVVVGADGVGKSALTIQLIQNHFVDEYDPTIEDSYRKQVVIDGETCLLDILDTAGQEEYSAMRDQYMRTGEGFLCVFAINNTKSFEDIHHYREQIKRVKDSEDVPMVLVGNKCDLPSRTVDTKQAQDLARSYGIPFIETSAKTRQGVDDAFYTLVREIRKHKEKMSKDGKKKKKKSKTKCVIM

For `C#Cc1c(F)ccc2cc(O)cc(-c3ncc4c(N5CCCC6(CCO6)C5)nc(OC[C@@]56CCCN5C[C@H](F)C6)nc4c3F)c12` (single isomer, unassigned) [Example 25], the IC50 at KRAS G12D [1] amounted to 1 nM; on KRAS G12D [2], 1 nM; with p-ERK (AsPC-1 cells) (setting [3]), 0.043 µM.

On to `CCc1c(F)ccc2cc(O)cc(-c3ncc4c(N5CCCC6(CCS(=O)(=O)C6)C5)nc(OC[C@@]56CCCN5C[C@H](F)C6)nc4c3F)c12` (single isomer, unassigned) [Example 35], for which the IC50 against KRAS G12D [1] was found to be 3 nM; on KRAS G12D [2], 2 nM; with p-ERK (AsPC-1 cells) (setting [4]) it was 0.06 µM.

Consider `CCc1c(F)ccc2cc(O)cc(-c3ncc4c(N5CCCC6(C5)CC(C)(O)C6)nc(OC[C@@]56CCCN5C[C@H](F)C6)nc4c3F)c12` (single isomer, unassigned) [Example 57], for which the IC50 against KRAS G12D [1] was 10 nM; on KRAS G12D [2] it was 6 nM; with p-ERK (AsPC-1 cells) (setting [4]) it was 0.131 µM.

`CCc1c(F)ccc2cccc(-c3ncc4c(N5CCCC6(CNC(=O)O6)C5)nc(OC[C@@]56CCCN5C[C@H](F)C6)nc4c3F)c12` (single isomer, unassigned) [Example 63]: the values for the IC50 on KRAS G12D [1], on KRAS G12D [2] and in the experiment with p-ERK (AsPC-1 cells) (setting [3]) were 2 nM, 4 nM and 0.026 µM, respectively.

As for `CCc1c(F)ccc2cc(O)cc(-c3ncc4c(N5CCCC6(CCOC6)C5)nc(OC[C@@]56CCCN5C[C@H](F)C6)nc4c3F)c12` (stereo partly drawn) [Example 33, 5-Ethyl-6-fluoro-4-(8-fluoro-2-(((2R,7aS)-2-fluorotetrahydro-1H-pyrrolizin-7a(5H)-yl)methoxy)-4-(2-oxa-7-azaspiro[4.5]decan-7-yl)pyrido[4,3-d]pyrimidin-7-yl)naphthalen-2-ol], the values for the IC50 against KRAS G12D [1], at KRAS G12D [2] and with p-ERK (AsPC-1 cells) (setting [3]) were 12 nM, 8 nM and 0.452 µM, respectively.

Regarding `CCc1c(F)ccc2cc(O)cc(-c3ncc4c(N5CCCC6(CCS(=O)(=O)C6)C5)nc(OC[C@@]56CCCN5C[C@H](F)C6)nc4c3F)c12` (single isomer, unassigned) [Example 34], the IC50 against KRAS G12D [1] worked out at 12 nM; at KRAS G12D [2], 9 nM; in the experiment on p-ERK (AsPC-1 cells) (setting [4]), 2.19 µM.

On to `CCc1c(F)ccc2cc(O)cc(-c3ncc4c(N5CCCC6(CC(=O)N6)C5)nc(OC[C@@]56CCCN5C[C@H](F)C6)nc4c3F)c12` (single isomer, unassigned) [Example 9], for which the figures for the IC50 at KRAS G12D [1], at KRAS G12D [2] and with p-ERK (AsPC-1 cells) (setting [4]) were 5 nM, 2 nM and 1.99 µM, respectively.

As to `C#Cc1c(F)ccc2cccc(-c3ncc4c(N5CCCC6(CNC(=O)C6)C5)nc(OC[C@@]56CCCN5C[C@H](F)C6)nc4c3F)c12` (stereo partly drawn) [Example 29, 7-(7-(8-Ethynyl-7-fluoronaphthalen-1-yl)-8-fluoro-2-(((2R,7aS)-2-fluorotetrahydro-1H-pyrrolizin-7a(5H)-yl)methoxy)pyrido[4,3-d]pyrimidin-4-yl)-2,7-diazaspiro[4.5]decan-3-one], the IC50 against KRAS G12D [1] stood at 9 nM; at KRAS G12D [2], 10 nM; with p-ERK (AsPC-1 cells) (setting [3]), 2.04 µM.

As to `CCc1c(F)ccc2cc(O)cc(-c3ncc4c(N5CCCC6(CNC(=O)C6)C5)nc(OC[C@@]56CCCN5C[C@H](F)C6)nc4c3F)c12` (single isomer, unassigned) [Example 8], the IC50 against KRAS G12D [1] amounted to 4 nM; on KRAS G12D [2], 2 nM; in the experiment on p-ERK (AsPC-1 cells) (setting [3]), 0.252 µM.

With `CCc1c(F)ccc2cc(O)cc(-c3ncc4c(N5CCCC6(CNC6=O)C5)nc(OC[C@@]56CCCN5C[C@H](F)C6)nc4c3F)c12` (single isomer, unassigned) [Example 45], the IC50 amounted to 5 nM on KRAS G12D [1], 3 nM at KRAS G12D [2] and 0.161 µM in the experiment with p-ERK (AsPC-1 cells) (setting [3]).

For `CCc1cccc2cc(O)cc(-c3ncc4c(N5CCCC6(CCO6)C5)nc(OC[C@@]56CCCN5C[C@H](F)C6)nc4c3F)c12` (single isomer, unassigned) [Example 23], the IC50 at KRAS G12D [1] is 3 nM; at KRAS G12D [2] it was 2 nM; in the experiment on p-ERK (AsPC-1 cells) (setting [3]), 0.011 µM.

Turning to `Oc1cc(Cl)c(C2CC2)c(-c2ncc3c(N4CCCC5(CCO5)C4)nc(OC[C@@]45CCCN4C[C@H](F)C5)nc3c2F)c1` (stereo partly drawn) [Example 26, 3-Chloro-4-cyclopropyl-5-(8-fluoro-2-(((2R,7aS)-2-fluorotetrahydro-1H-pyrrolizin-7a(5H)-yl)methoxy)-4-(1-oxa-6-azaspiro[3.5]nonan-6-yl)pyrido[4,3-d]pyrimidin-7-yl)phenol], the IC50 against KRAS G12D [1] is 2 nM; on KRAS G12D [2] it was 1 nM; with p-ERK (AsPC-1 cells) (setting [3]), 0.066 µM.

For the compound `CCc1c(F)ccc2cc(O)cc(-c3ncc4c(N5CCCC6(CCO6)C5)nc(OC[C@@]56CCCN5C[C@H](F)C6)nc4c3C)c12` (single isomer, unassigned) [Example 61], the IC50 is 4 nM against KRAS G12D [1], 10 nM on KRAS G12D [2] and 0.007 µM with p-ERK (AsPC-1 cells) (setting [3]).

`CCc1c(F)ccc2cc(O)cc(-c3ncc4c(N5CCOC6(CC6)C5)nc(OC[C@@]56CCCN5C[C@H](F)C6)nc4c3F)c12` [Example 2, 5-Ethyl-6-fluoro-4-(8-fluoro-2-(((2R,7aS)-2-fluorotetrahydro-1H-pyrrolizin-7a(5H)-yl)methoxy)-4-(4-oxa-7-azaspiro[2.5]octan-7-yl)pyrido[4,3-d]pyrimidin-7-yl)naphthalen-2-ol]: the figures for the IC50 at KRAS G12D [1], on KRAS G12D [2] and in the experiment on p-ERK (AsPC-1 cells) (setting [3]) were 4 nM, 8 nM and 0.523 µM, respectively.

For `Oc1cc(-c2ncc3c(N4CCCC5(CCO5)C4)nc(OC[C@@]45CCCN4C[C@H](F)C5)nc3c2F)c2c(F)c(F)ccc2c1` (single isomer, unassigned) [Example 24], the IC50 worked out at 2 nM against KRAS G12D [1], 1 nM at KRAS G12D [2] and 0.009 µM in the experiment on p-ERK (AsPC-1 cells) (setting [3]).

With `CCc1cccc2cc(O)cc(-c3ncc4c(N5CCCC6(CC(O)C6)C5)nc(OC[C@@]56CCCN5C[C@H](F)C6)nc4c3F)c12` (single isomer, unassigned) [Example 13], the 50% inhibitory concentration (IC50) against KRAS G12D [1] was 1 nM; at KRAS G12D [2], 2 nM; in the experiment with p-ERK (AsPC-1 cells) (setting [3]), 0.022 µM.

Regarding `CCc1c(F)ccc2cc(O)cc(-c3ncc4c(N5CCCC6(CCC(=O)O6)C5)nc(OC[C@@]56CCCN5C[C@H](F)C6)nc4c3F)c12` (single isomer, unassigned) [Example 66], the IC50 against KRAS G12D [1] was found to be 1 nM; on KRAS G12D [2], 3 nM; with p-ERK (AsPC-1 cells) (setting [3]), 0.03 µM.

In the case of `Oc1cc(-c2ncc3c(N4CCC[C@]5(CCO5)C4)nc(OC[C@@]45CCCN4C[C@H](F)C5)nc3c2F)c2c(Cl)c(F)ccc2c1` (single isomer, unassigned) [Example 58], the IC50 against KRAS G12D [1] was determined as 1 nM; at KRAS G12D [2], 1 nM; with p-ERK (AsPC-1 cells) (setting [3]) it was 0.003 µM.

Regarding `CCc1c(F)ccc2cc(O)cc(-c3ncc4c(N5CCC6(CC5)CNC(=O)O6)nc(OC[C@@]56CCCN5C[C@H](F)C6)nc4c3F)c12` [Example 41, 8-(7-(8-Ethyl-7-fluoro-3-hydroxynaphthalen-1-yl)-8-fluoro-2-(((2R,7aS)-2-fluorotetrahydro-1H-pyrrolizin-7a(5H)-yl)methoxy)pyrido[4,3-d]pyrimidin-4-yl)-1-oxa-3,8-diazaspiro[4.5]decan-2-one], the IC50 was 10 nM on KRAS G12D [1], 19 nM at KRAS G12D [2] and over 10 µM in the experiment with p-ERK (AsPC-1 cells) (setting [3]).

In the case of `CCc1c(F)ccc2cc(O)cc(-c3ncc4c(N5CCCC6(CCCO6)C5)nc(OC[C@@]56CCCN5C[C@H](F)C6)nc4c3F)c12` (stereo partly drawn) [Example 27, 5-Ethyl-6-fluoro-4-(8-fluoro-2-(((2R,7aS)-2-fluorotetrahydro-1H-pyrrolizin-7a(5H)-yl)methoxy)-4-(1-oxa-7-azaspiro[4.5]decan-7-yl)pyrido[4,3-d]pyrimidin-7-yl) naphthalen-2-ol], the figures for the IC50 against KRAS G12D [1], on KRAS G12D [2] and with p-ERK (AsPC-1 cells) (setting [3]) were 6 nM, 4 nM and 0.137 µM, respectively.

Regarding `CCc1c(F)ccc2cc(O)cc(-c3ncc4c(N5CCCC6(CC(=O)N6C)C5)nc(OC[C@@]56CCCN5C[C@H](F)C6)nc4c3F)c12` (stereo partly drawn) [Example 6, 6-(7-(8-Ethyl-7-fluoro-3-hydroxynaphthalen-1-yl)-8-fluoro-2-(((2R,7aS)-2-fluorotetrahydro-1H-pyrrolizin-7a(5H)-yl)methoxy)pyrido[4,3-d]pyrimidin-4-yl)-1-methyl-1,6-diazaspiro[3.5]nonan-2-one], the values for the IC50 against KRAS G12D [1], on KRAS G12D [2] and in the experiment with p-ERK (AsPC-1 cells) (setting [3]) were 10 nM, 8 nM and 2.4 µM, respectively.

Take `CCc1c(F)ccc2cc(O)cc(-c3ncc4c(N5CCCC6(CCO6)C5)nc(OC[C@@H]5C[C@@H](F)CN5C)nc4c3F)c12` (single isomer, unassigned) [Example 60]: the results for the 50% inhibitory concentration (IC50) against KRAS G12D [1], at KRAS G12D [2] and in the experiment on p-ERK (AsPC-1 cells) (setting [3]) were 3 nM, 6 nM and 0.019 µM, respectively.

As for `CCc1c(F)ccc2cc(O)cc(-c3ncc4c(N5CCC6(CC5)COC(=O)N6)nc(OC[C@@]56CCCN5C[C@H](F)C6)nc4c3F)c12` [Example 42, 8-(7-(8-Ethyl-7-fluoro-3-hydroxynaphthalen-1-yl)-8-fluoro-2-(((2R,7aS)-2-fluorotetrahydro-1H-pyrrolizin-7a(5H)-yl)methoxy)pyrido[4,3-d]pyrimidin-4-yl)-3-oxa-1,8-diazaspiro[4.5]decan-2-one], the IC50 against KRAS G12D [1] is 5 nM; at KRAS G12D [2], 7 nM; in the experiment on p-ERK (AsPC-1 cells) (setting [3]), 3.18 µM.
